Data as given in ChEMBL document CHEMBL1131728 (Bioorg Med Chem Lett, 1999).

Target: T1, Aminopeptidase N (Sus scrofa, UniProt P15145)
T1 sequence (P15145 whole entry): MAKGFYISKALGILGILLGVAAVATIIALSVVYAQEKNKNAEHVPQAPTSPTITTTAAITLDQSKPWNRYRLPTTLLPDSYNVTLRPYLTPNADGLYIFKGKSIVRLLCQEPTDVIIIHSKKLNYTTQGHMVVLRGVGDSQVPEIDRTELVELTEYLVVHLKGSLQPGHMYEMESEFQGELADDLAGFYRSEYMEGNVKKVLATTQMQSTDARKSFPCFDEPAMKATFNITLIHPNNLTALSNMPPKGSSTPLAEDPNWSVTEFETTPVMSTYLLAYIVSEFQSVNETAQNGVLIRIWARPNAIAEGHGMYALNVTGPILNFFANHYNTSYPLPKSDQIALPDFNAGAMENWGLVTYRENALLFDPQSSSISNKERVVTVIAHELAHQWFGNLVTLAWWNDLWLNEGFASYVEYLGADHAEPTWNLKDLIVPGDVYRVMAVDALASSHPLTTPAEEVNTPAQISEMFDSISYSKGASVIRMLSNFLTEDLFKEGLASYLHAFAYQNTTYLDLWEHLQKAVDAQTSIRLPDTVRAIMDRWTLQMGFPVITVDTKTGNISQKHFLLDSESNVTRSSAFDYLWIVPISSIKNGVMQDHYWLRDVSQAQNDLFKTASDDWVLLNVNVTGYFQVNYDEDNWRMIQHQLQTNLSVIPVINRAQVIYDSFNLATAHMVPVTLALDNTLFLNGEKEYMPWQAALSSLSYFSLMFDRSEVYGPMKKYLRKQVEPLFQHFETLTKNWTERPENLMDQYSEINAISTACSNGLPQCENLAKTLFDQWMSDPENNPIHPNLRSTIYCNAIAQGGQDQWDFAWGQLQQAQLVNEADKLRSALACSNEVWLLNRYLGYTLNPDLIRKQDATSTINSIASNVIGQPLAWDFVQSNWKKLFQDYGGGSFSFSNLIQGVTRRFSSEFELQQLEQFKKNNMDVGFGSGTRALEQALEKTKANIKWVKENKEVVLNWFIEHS
Assay: Inhibition of pig kidney Aminopeptidase N

Row | SMILES | Ki
1 | N[C@H](CS)c1ccccc1 | 25 nM
2 | NC(Cc1ccccc1)P(=O)(O)CC(Cc1ccccc1)C(=O)O (stereo unspecified) | 190 nM
3 | N[C@H](CS)CCc1ccccc1 | 27 nM
4 | CC(C)CC(N)P(=O)(O)CC(Cc1ccccc1)C(=O)O (stereo unspecified) | 370 nM
5 | C[C@H](N)CS | 28 nM
6 | CC(N)[PH](=O)O (stereo unspecified) | 8400 nM
7 | NC(Cc1ccccc1)[PH](=O)O (stereo unspecified) | 960 nM
8 | CSCCC(N)[PH](=O)O (stereo unspecified) | 400 nM
9 | CC(C)CC(N)[PH](=O)O (stereo unspecified) | 1200 nM
10 | NC(c1ccccc1)[PH](=O)O (stereo unspecified) | 4800 nM
11 | CC(C)C[C@H](N)CS | 22 nM
